Results reported in ChEMBL document CHEMBL1201862, “PubChem BioAssay data set” (2004).
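Briefly, cells in 96-well plates were exposed to five compound concentrations for 48 h, and endpoints were estimated by linear interpolation. The concentration for 50% growth inhibition is given as GI50.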 Calls of active or inactive are those of the source. Cut-off read from the data, not from the text of the source: active = GI50 up to about 1.1 µM and inactive = higher.

Tests used:
Assay in all cases: DTP human tumour cell line panel, 48 h
OVCAR-4 = test system: OVCAR-4
SK-OV-3 = test system: SK-OV-3
OVCAR-8 = test system: OVCAR-8
HCC 2998 = test system: HCC 2998
HCT-116 = test system: HCT-116
HL-60 = test system: HL-60
HT-29 = test system: HT-29
OVCAR-5 = test system: OVCAR-5
ACHN = test system: ACHN
SK-MEL-28 = test system: SK-MEL-28
NCI-H522 = test system: NCI-H522
UO-31 = test system: UO-31
786-0 = test system: 786-0
NCI-H226 = test system: NCI-H226
SR = test system: SR

Measured: GI50

C=CCc1cc(OC)c(O)c(C(=O)/C=C/c2ccc(OC)c(OC)c2)c1
inactive: OVCAR-4 16.2 µM | SK-OV-3 28.5 µM | OVCAR-8 > 10 µM | HCC 2998 21.8 µM | HCT-116 14.5 µM | HL-60 11.6 µM | HT-29 16.4 µM | OVCAR-5 20.1 µM | ACHN 19.9 µM | SK-MEL-28 16.9 µM | NCI-H522 1.86 µM | UO-31 15.9 µM | 786-0 18.2 µM

Cc1c2ccnc(C(N)=O)c2c(C)c2c1[nH]c1ccccc12
inactive: OVCAR-4 9.31 µM | SK-OV-3 7.66 µM | OVCAR-8 4.13 µM | HCC 2998 14.1 µM | HCT-116 2.4 µM | NCI-H226 6.65 µM | HL-60 13.4 µM | HT-29 6.35 µM | OVCAR-5 18.8 µM | ACHN 2.51 µM | SK-MEL-28 7.78 µM | NCI-H522 7.59 µM | UO-31 6.43 µM | 786-0 5.08 µM

O=C1NC(=O)C(C(=O)C(=O)Nc2cccc(C(F)(F)F)c2)C(=O)N1
inactive: OVCAR-4 > 100 µM | SK-OV-3 > 100 µM | OVCAR-8 > 100 µM | HCC 2998 > 100 µM | HCT-116 > 100 µM | HL-60 > 100 µM | OVCAR-5 > 100 µM | ACHN > 100 µM | SK-MEL-28 > 100 µM | NCI-H522 > 100 µM | UO-31 > 100 µM | 786-0 > 100 µM

N#Cc1ccccc1NC(=O)c1ccccc1
inactive: OVCAR-4 > 100 µM | SR > 100 µM | OVCAR-8 > 100 µM | HCT-116 > 100 µM | HT-29 > 100 µM | OVCAR-5 > 100 µM | ACHN > 100 µM | SK-MEL-28 > 100 µM | 786-0 > 100 µM

CC1COS(=O)N1c1ccccc1 (stereo not given)
inactive: OVCAR-4 > 100 µM | SK-OV-3 > 100 µM | OVCAR-8 > 100 µM | HCC 2998 > 100 µM | NCI-H226 > 100 µM | HL-60 > 100 µM | HT-29 > 100 µM | OVCAR-5 > 100 µM | ACHN > 100 µM | SK-MEL-28 > 100 µM | NCI-H522 > 100 µM | UO-31 > 100 µM | 786-0 > 100 µM

Cc1nn(-c2ccccc2)c2nc(N3CCOCC3)nnc12
inactive: OVCAR-4 34.7 µM | SK-OV-3 > 100 µM | OVCAR-8 92.5 µM | HCC 2998 > 100 µM | HCT-116 > 100 µM | HT-29 > 100 µM | OVCAR-5 > 100 µM | ACHN 71.9 µM | SK-MEL-28 > 100 µM | UO-31 28.6 µM | 786-0 > 100 µM

CC(=O)OCC(OC(C)=O)C(OC(C)=O)C(OC(C)=O)C(=O)CNn1c(-c2ccc(C)cc2)nc2ccccc2c1=O (stereo not given)
inactive: OVCAR-4 > 100 µM | SR 41.2 µM | SK-OV-3 > 100 µM | OVCAR-8 > 100 µM | HCT-116 > 100 µM | HL-60 50 µM | HT-29 > 100 µM | OVCAR-5 > 100 µM | ACHN > 100 µM | SK-MEL-28 > 100 µM | NCI-H522 57.9 µM | UO-31 > 100 µM | 786-0 > 100 µM

CC(C)N(C(=O)C12C3C4C1(I)C1C2C3(I)C41C(=O)N(C(C)C)C(C)C)C(C)C (stereo not given)
inactive: OVCAR-4 > 58.5 µM | SK-OV-3 > 100 µM | OVCAR-8 > 100 µM | HCC 2998 > 100 µM | HCT-116 > 100 µM | NCI-H226 > 100 µM | HL-60 > 44.9 µM | HT-29 > 100 µM | OVCAR-5 > 100 µM | ACHN > 100 µM | SK-MEL-28 > 100 µM | NCI-H522 > 75.9 µM | UO-31 > 100 µM | 786-0 > 45.7 µM

CCCCCNC(=O)C1C(=O)N(CCCCC)C(=O)/C1=N\N (stereo not given)
inactive: OVCAR-4 61.8 µM | OVCAR-8 49.2 µM | HCC 2998 35.3 µM | HL-60 > 100 µM | HT-29 83.8 µM | OVCAR-5 > 100 µM | ACHN 59.8 µM | SK-MEL-28 62.8 µM | NCI-H522 31.6 µM | UO-31 26.8 µM | 786-0 > 100 µM
